Assay results as given in US11000033B2, “Ketone or oxime compound, and herbicide” (NISSAN CHEMICAL CORPORATION, priority 2014, dated 2021).

Assays:
Type in all cases: in vivo
[1] = system: Echinochloa oryzacola Vasing.; assay: Test Example 2: herbicidal activity, application during weed generation in submerged conditions (symbol A); settings: Table 23; application herbicide amount 320 g/ha; grade 0-5 by criteria of Test Example 1
Method in brief: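 Paddy pot test, submerged (4 cm water), alluvial soil, mixed sowing; greenhouse 25–30° C. Emulsion formulation diluted to predetermined rate, applied onto floodwater at 1–2 leaf stage. Visual herbicidal rating at 3 wk post-treatment.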

Leptochloa chinensis = assay: Test Example 3: herbicidal effect by foliage application, Wagner pot (symbol D); settings: application herbicide amount 320 g/ha
Method in brief: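 Foliar spray of water-diluted emulsion formulation at a predetermined herbicide amount onto 14-day-old plants in flooded alluvial soil (water depth 0.1–0.5 cm), greenhouse 25–30 °C; rice sown alongside. Scored 3 wk post-application on set criteria.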

Setaria viridis [2] = assay: Test Example 4: herbicidal effect by soil treatment (symbol G)
Method in brief: (§1)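 Seeds were sown in sterilized diluvial soil, covered with about 1.5 cm of soil, and the soil surface was sprayed with a water-diluted emulsion of the compound at a predetermined rate. Plants grew in a greenhouse at 25° C. to 30° C.; effects were scored visually 3 weeks after application.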

Amaranthus retroflexus = assay: Test Example 4: herbicidal effect by soil treatment (symbol N)
Method in brief: as §1

wheat [3] = assay: Test Example 4: effect on crop by soil treatment (symbol e); settings: for e: wheat, effect grade on crop: 320 g/ha
Method in brief: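 Plants are raised in a greenhouse (25° C. to 30° C.) from spot-sown seed, which sits under about 1.5 cm of sterilized diluvial soil in a box shared with weed species.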

Setaria viridis [4] = assay: Test Example 5: herbicidal effect by foliage application, plastic box (symbol G); settings: 320 g/ha, 3 weeks after application
Method in brief: (§2)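 Post-emergence spray; diluvial soil (sterilized), ~1.5 cm seed cover; greenhouse 25–30° C; 14-day-old plants; water-diluted emulsion at predetermined dose; visual score at 3 wk post-treatment.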

Alopecurus myosuroides = assay: Test Example 5: herbicidal effect by foliage application, plastic box (symbol J); settings: 320 g/ha, 3 weeks after application
Method in brief: as §2

Chenopodium album = assay: Test Example 5: herbicidal effect by foliage application, plastic box (symbol O); settings: 320 g/ha, 3 weeks after application
Method in brief: as §2

corn = assay: Test Example 5: effect on crop by foliage application, plastic box (symbol c); settings: 320 g/ha, 3 weeks after application
Method in brief: (§3)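 Sterilized diluvial soil, plastic box (21 × 13 × 7 cm); spot sowing, ~1.5 cm soil cover; greenhouse 25–30° C.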

rice plant = assay: Test Example 5: effect on crop by foliage application, plastic box (symbol b); settings: 320 g/ha, 3 weeks after application
Method in brief: as §3

wheat [5] = assay: Test Example 5: effect on crop by foliage application, plastic box (symbol e); settings: 320 g/ha, 3 weeks after application
Method in brief: as §3

beet = assay: Test Example 5: effect on crop by foliage application, plastic box (symbol f); settings: 320 g/ha, 3 weeks after application
Method in brief: as §3

[6] = application herbicide amount 320 g/ha

Row | Compound | Herbicidal effect grade, A: Echinochloa oryzacola Vasing. [1] | herbicidal effect on D (Leptochloa chinensis), grade 0-5 (Leptochloa chinensis) | G: Setaria viridis, herbicidal effect grade (Setaria viridis [2]; 320 g/ha) | N: Amaranthus retroflexus, herbicidal effect grade (Amaranthus retroflexus; 320 g/ha) | e: wheat, effect grade on crop (wheat [3]) | G: Setaria viridis, herbicidal effect (criteria 0-5) (Setaria viridis [4]) | J: Alopecurus myosuroides, herbicidal effect (criteria 0-5) (Alopecurus myosuroides) | O: Chenopodium album, herbicidal effect (criteria 0-5) (Chenopodium album) | c: corn, effect on crop (criteria 0-5) (corn) | b: directly sowed rice plant, effect on crop (criteria 0-5) (rice plant) | e: wheat, effect on crop (criteria 0-5) (wheat [5]) | f: beet, effect on crop (criteria 0-5) (beet) | G (Setaria viridis) herbicidal effect grade (Setaria viridis [2]; [6]) | G: Setaria viridis, herbicidal effect grade (Setaria viridis [4]) | J: Alopecurus myosuroides, herbicidal effect grade (Alopecurus myosuroides) | O: Chenopodium album, herbicidal effect grade (Chenopodium album) | c: corn, effect on crop grade (corn) | b: directly sowed rice plant, effect on crop grade (rice plant) | e: wheat, effect on crop grade (wheat [5]) | f: beet, effect on crop grade (beet) | also measured
1 | CON=C(C)CC1CC(OS(=O)(=O)CCCCl)=C(c2c(C)cc(C)cc2C)C1=O (stereo not drawn) [1-142] | 5 (Herbicidal ratio of 90% or more (almost completely withered)) | 5 (Herbicidal ratio of 90% or more (almost completely withered)) | 5 (Herbicidal ratio of 90% or more (almost completely withered)) | 0 (Herbicidal ratio of 5% or lower (almost no effect)) | 3 (Herbicidal ratio of 40% or higher and lower than 70%) | 5 (Herbicidal ratio of 90% or more (almost completely withered)) | 5 (Herbicidal ratio of 90% or more (almost completely withered)) | 2 (Herbicidal ratio of 20% or higher and lower than 40%) | 5 (Herbicidal ratio of 90% or more (almost completely withered)) | 5 (Herbicidal ratio of 90% or more (almost completely withered)) | 4 (Herbicidal ratio of 70% or higher and lower than 90%) | 3 (Herbicidal ratio of 40% or higher and lower than 70%) |  |  |  |  |  |  |  |  | 
2 | CON=C(C)CC1CC(OC(=O)c2ccccc2)=C(c2c(C)cc(C)cc2C)C1=O (stereo not drawn) [1-010] | 5 (Herbicidal ratio of 90% or more (almost completely withered)) | 5 (Herbicidal ratio of 90% or more (almost completely withered)) |  |  |  |  |  |  |  |  |  |  | 3 (Herbicidal ratio of 40% or higher and lower than 70%) | 5 (Herbicidal ratio of 90% or more (almost completely withered)) | 5 (Herbicidal ratio of 90% or more (almost completely withered)) | 4 (Herbicidal ratio of 70% or higher and lower than 90%) | 5 (Herbicidal ratio of 90% or more (almost completely withered)) | 5 (Herbicidal ratio of 90% or more (almost completely withered)) | 5 (Herbicidal ratio of 90% or more (almost completely withered)) | 4 (Herbicidal ratio of 70% or higher and lower than 90%) | N (Amaranthus retroflexus) herbicidal effect grade (Amaranthus retroflexus; [6]): 5 (Herbicidal ratio of 90% or more (almost completely withered)); e (wheat) effect on crop grade (wheat [3]; [6]): 4 (Herbicidal ratio of 70% or higher and lower than 90%)
3 | CON=C(C)CC1CC(O)=C(c2c(C)cc(C#CCO)cc2C)C1=O (mixture of isomers) [6-025] | 2 (Herbicidal ratio of 20% or higher and lower than 40%) | 5 (Herbicidal ratio of 90% or more (almost completely withered)) |  |  |  |  |  |  |  |  |  |  |  | 5 (Herbicidal ratio of 90% or more (almost completely withered)) | 5 (Herbicidal ratio of 90% or more (almost completely withered)) | 0 (Herbicidal ratio of 5% or lower (almost no effect)) | 4 (Herbicidal ratio of 70% or higher and lower than 90%) | 5 (Herbicidal ratio of 90% or more (almost completely withered)) | 1 (Herbicidal ratio of 5% or higher and lower than 20%) | 0 (Herbicidal ratio of 5% or lower (almost no effect)) | G: Setaria viridis, herbicidal effect grade (Setaria viridis [2]; [6]): 4 (Herbicidal ratio of 70% or higher and lower than 90%); N: Amaranthus retroflexus, herbicidal effect grade (Amaranthus retroflexus; [6]): 0 (Herbicidal ratio of 5% or lower (almost no effect)); e: wheat, effect on crop grade (wheat [3]; [6]): 0 (Herbicidal ratio of 5% or lower (almost no effect))
4 | COC(=O)C(C(C)=O)C1CC(O)=C(c2c(C)cc(C)cc2C)C1=O (stereo not drawn) [2-003] | 0 (Herbicidal ratio of 5% or lower (almost no effect)) | 5 (Herbicidal ratio of 90% or more (almost completely withered)) | 0 (Herbicidal ratio of 5% or lower (almost no effect)) | 0 (Herbicidal ratio of 5% or lower (almost no effect)) | 0 (Herbicidal ratio of 5% or lower (almost no effect)) |  |  |  |  |  |  |  |  | 5 (Herbicidal ratio of 90% or more (almost completely withered)) | 5 (Herbicidal ratio of 90% or more (almost completely withered)) | 0 (Herbicidal ratio of 5% or lower (almost no effect)) | 3 (Herbicidal ratio of 40% or higher and lower than 70%) | 5 (Herbicidal ratio of 90% or more (almost completely withered)) | 0 (Herbicidal ratio of 5% or lower (almost no effect)) | 0 (Herbicidal ratio of 5% or lower (almost no effect)) | 
5 | CON=C(C)CC1CC(OC(=O)c2ccc(C(F)(F)F)cc2)=C(c2c(C)cc(C)cc2C)C1=O (stereo not drawn) [1-149] | 5 (Herbicidal ratio of 90% or more (almost completely withered)) | 5 (Herbicidal ratio of 90% or more (almost completely withered)) | 5 (Herbicidal ratio of 90% or more (almost completely withered)) | 4 (Herbicidal ratio of 70% or higher and lower than 90%) | 5 (Herbicidal ratio of 90% or more (almost completely withered)) | 5 (Herbicidal ratio of 90% or more (almost completely withered)) | 5 (Herbicidal ratio of 90% or more (almost completely withered)) | 2 (Herbicidal ratio of 20% or higher and lower than 40%) | 4 (Herbicidal ratio of 70% or higher and lower than 90%) | 5 (Herbicidal ratio of 90% or more (almost completely withered)) | 5 (Herbicidal ratio of 90% or more (almost completely withered)) | 2 (Herbicidal ratio of 20% or higher and lower than 40%) |  |  |  |  |  |  |  |  | 
6 | CON=C(C)CC1CC(OCC#N)=C(c2c(C)cc(C)cc2C)C1=O (stereo not drawn) [1-013] | 0 (Herbicidal ratio of 5% or lower (almost no effect)) | 2 (Herbicidal ratio of 20% or higher and lower than 40%) |  |  |  |  |  |  |  |  |  |  | 0 (Herbicidal ratio of 5% or lower (almost no effect)) | 0 (Herbicidal ratio of 5% or lower (almost no effect)) | 4 (Herbicidal ratio of 70% or higher and lower than 90%) | 0 (Herbicidal ratio of 5% or lower (almost no effect)) | 0 (Herbicidal ratio of 5% or lower (almost no effect)) | 2 (Herbicidal ratio of 20% or higher and lower than 40%) | 0 (Herbicidal ratio of 5% or lower (almost no effect)) | 0 (Herbicidal ratio of 5% or lower (almost no effect)) | N (Amaranthus retroflexus) herbicidal effect grade (Amaranthus retroflexus; [6]): 0 (Herbicidal ratio of 5% or lower (almost no effect)); e (wheat) effect on crop grade (wheat [3]; [6]): 0 (Herbicidal ratio of 5% or lower (almost no effect))
